Experimental data published in PubChem BioAssay (NCI).
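1) Cells in 96-well plates. 2) Compound, 48 h, 5 concentrations. 3) Linear interpolation between surrounding doses. 4) Unreached endpoint = highest concentration. TGI: total growth inhibition.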

What was measured:
Test in all cases: NCI tumour cell line growth inhibition, 48 h
[1] = test system: EKVX NSCLC
[2] = test system: UACC-62 melanoma
[3] = test system: SF-268 CNS
[4] = test system: DU-145 prostate
[5] = test system: SW-620 colon
[6] = test system: SK-MEL-5 melanoma
[7] = test system: HL-60(TB) leukemia
[8] = test system: NCI/ADR-RES ovarian
[9] = test system: OVCAR-8 ovarian
[10] = test system: HCT-116 colon
[11] = test system: LOX IMVI melanoma
[12] = test system: RXF 393 renal
[13] = test system: MDA-MB-435
[14] = test system: OVCAR-4 ovarian
[15] = test system: NCI-H226 lung
[16] = test system: UACC-257 melanoma
[17] = test system: MALME-3M melanoma
[18] = test system: MDA-MB-231 breast
[19] = test system: UO-31 renal
[20] = test system: NCI-H23 lung
[21] = test system: HS 578T breast
[22] = test system: SN12C renal
[23] = test system: T-47D breast
[24] = test system: COLO 205 colon
[25] = test system: A549 NSCLC
[26] = test system: HCC-2998 colon
[27] = test system: SNB-19 CNS
[28] = test system: TK-10 renal
[29] = test system: MCF7 breast
[30] = test system: KM12 colon
[31] = test system: SK-MEL-2 melanoma
[32] = test system: OVCAR-3 ovarian
[33] = test system: MDA-N
[34] = test system: PC-3 prostate
[35] = test system: BT-549 breast
[36] = test system: SF-295 CNS
[37] = test system: SK-MEL-28 melanoma
[38] = test system: IGROV1 ovarian
[39] = test system: ACHN renal
[40] = test system: M14 melanoma
[41] = test system: SF-539 CNS
[42] = test system: CCRF-CEM leukemia
[43] = test system: U251 CNS
[44] = test system: 786-0 renal
[45] = test system: SNB-75 CNS
[46] = test system: HCT-15 colon
[47] = test system: SR leukemia
[48] = test system: K-562 leukemia
[49] = test system: RPMI-8226 leukemia
[50] = test system: HOP-62 NSCLC
[51] = test system: NCI-H460 lung
[52] = test system: CAKI-1 renal
[53] = test system: SK-OV-3 ovarian
[54] = test system: MOLT-4 leukemia
[55] = test system: HT29 colon
[56] = test system: OVCAR-5 ovarian
[57] = test system: NCI-H522 lung
[58] = test system: A498 renal
[59] = test system: HOP-92 NSCLC

CCOP(=O)(OCC)C(C)(C)OC(=O)NC(F)(F)F
TGI [1]: > 100 µM
TGI [2]: > 100 µM
TGI [3]: > 100 µM
TGI [4]: > 100 µM
TGI [5]: > 100 µM
TGI [6]: > 100 µM
TGI [7]: > 100 µM
TGI [8]: > 100 µM
TGI [9]: > 100 µM
TGI [10]: > 100 µM
TGI [11]: > 100 µM
TGI [12]: > 100 µM
TGI [13]: > 100 µM
TGI [14]: > 100 µM
TGI [15]: 99.6 µM
TGI [16]: > 100 µM
TGI [17]: > 100 µM
TGI [18]: > 100 µM
TGI [19]: > 100 µM
TGI [20]: > 100 µM
TGI [21]: > 100 µM
TGI [22]: > 100 µM
TGI [23]: > 100 µM
TGI [24]: > 100 µM
TGI [25]: > 100 µM
TGI [26]: > 100 µM
TGI [27]: > 100 µM
TGI [28]: > 100 µM
TGI [29]: > 100 µM
TGI [30]: > 100 µM
TGI [31]: > 100 µM
TGI [32]: > 100 µM
TGI [33]: > 100 µM
TGI [34]: > 100 µM
TGI [35]: > 100 µM
TGI [36]: > 100 µM
TGI [37]: > 100 µM
TGI [38]: > 100 µM
TGI [39]: > 100 µM
TGI [40]: > 100 µM
TGI [41]: > 100 µM
TGI [42]: > 100 µM
TGI [43]: > 100 µM
TGI [44]: > 100 µM
TGI [45]: > 100 µM
TGI [46]: > 100 µM
TGI [47]: > 100 µM
TGI [48]: > 100 µM
TGI [49]: > 100 µM
TGI [50]: > 100 µM
TGI [51]: > 100 µM
TGI [52]: > 100 µM
TGI [53]: > 100 µM
TGI [54]: > 100 µM
TGI [55]: > 100 µM
TGI [56]: > 100 µM

Cc1ncc([N+](=O)[O-])n1CCNC(=O)CCC(=O)NCCCn1ccnc1[N+](=O)[O-]
TGI [1]: > 100 µM
TGI [2]: > 100 µM
TGI [3]: > 100 µM
TGI [57]: > 100 µM
TGI [4]: > 100 µM
TGI [5]: > 100 µM
TGI [6]: > 100 µM
TGI [7]: > 100 µM
TGI [8]: > 100 µM
TGI [9]: > 100 µM
TGI [10]: > 100 µM
TGI [11]: > 100 µM
TGI [12]: > 100 µM
TGI [13]: > 100 µM
TGI [14]: > 100 µM
TGI [15]: > 100 µM
TGI [16]: > 100 µM
TGI [17]: > 100 µM
TGI [18]: > 100 µM
TGI [19]: > 100 µM
TGI [20]: > 100 µM
TGI [21]: > 100 µM
TGI [22]: > 100 µM
TGI [23]: > 100 µM
TGI [24]: > 100 µM
TGI [25]: > 100 µM
TGI [58]: > 100 µM
TGI [28]: > 100 µM
TGI [29]: > 100 µM
TGI [30]: > 100 µM
TGI [31]: > 100 µM
TGI [32]: > 100 µM
TGI [33]: > 100 µM
TGI [34]: > 100 µM
TGI [35]: > 100 µM
TGI [36]: > 100 µM
TGI [37]: > 100 µM
TGI [38]: > 100 µM
TGI [39]: > 100 µM
TGI [40]: > 100 µM
TGI [41]: > 100 µM
TGI [42]: > 100 µM
TGI [43]: > 100 µM
TGI [44]: > 100 µM
TGI [59]: > 100 µM
TGI [45]: > 100 µM
TGI [46]: > 100 µM
TGI [47]: > 100 µM
TGI [48]: > 100 µM
TGI [49]: > 100 µM
TGI [50]: > 100 µM
TGI [51]: > 100 µM
TGI [52]: > 100 µM
TGI [53]: > 100 µM
TGI [54]: > 100 µM
TGI [55]: > 100 µM
TGI [56]: > 100 µM

CN(C)CCNS(=O)(=O)N(C)C
TGI [1]: > 100 µM
TGI [2]: > 100 µM
TGI [3]: > 100 µM
TGI [57]: > 100 µM
TGI [4]: > 100 µM
TGI [5]: > 100 µM
TGI [6]: > 100 µM
TGI [7]: > 100 µM
TGI [8]: > 100 µM
TGI [9]: > 100 µM
TGI [10]: > 100 µM
TGI [11]: > 100 µM
TGI [12]: > 100 µM
TGI [13]: > 100 µM
TGI [14]: > 100 µM
TGI [15]: > 100 µM
TGI [16]: > 100 µM
TGI [17]: > 100 µM
TGI [18]: > 100 µM
TGI [20]: > 100 µM
TGI [21]: > 100 µM
TGI [22]: > 100 µM
TGI [23]: > 100 µM
TGI [24]: > 100 µM
TGI [25]: > 100 µM
TGI [27]: > 100 µM
TGI [58]: > 100 µM
TGI [28]: > 100 µM
TGI [29]: > 100 µM
TGI [30]: > 100 µM
TGI [31]: > 100 µM
TGI [32]: > 100 µM
TGI [33]: > 100 µM
TGI [34]: > 100 µM
TGI [35]: > 100 µM
TGI [36]: > 100 µM
TGI [37]: > 100 µM
TGI [38]: > 100 µM
TGI [39]: > 100 µM
TGI [40]: > 100 µM
TGI [41]: > 100 µM
TGI [42]: > 100 µM
TGI [43]: > 100 µM
TGI [44]: > 100 µM
TGI [59]: > 100 µM
TGI [45]: > 100 µM
TGI [46]: > 100 µM
TGI [47]: > 100 µM
TGI [48]: > 100 µM
TGI [49]: > 100 µM
TGI [50]: > 100 µM
TGI [51]: > 100 µM
TGI [52]: > 100 µM
TGI [53]: > 100 µM
TGI [54]: > 100 µM
TGI [55]: > 100 µM
TGI [56]: > 100 µM
